In paper PMC4684082 (Journal of the American Chemical Society, 2015):
Positions count from the first letter of the chain named.

Columns and labels:
[1] = target: T1, wt hhIYD (iodotyrosine deiodinase from Haliscomenobacter hydrossis) (Haliscomenobacter hydrossis, UniProt F4KU78); assay: quenching of active-site FMNox fluorescence; assay type: binding
T1 sequence (F4KU78 1-222): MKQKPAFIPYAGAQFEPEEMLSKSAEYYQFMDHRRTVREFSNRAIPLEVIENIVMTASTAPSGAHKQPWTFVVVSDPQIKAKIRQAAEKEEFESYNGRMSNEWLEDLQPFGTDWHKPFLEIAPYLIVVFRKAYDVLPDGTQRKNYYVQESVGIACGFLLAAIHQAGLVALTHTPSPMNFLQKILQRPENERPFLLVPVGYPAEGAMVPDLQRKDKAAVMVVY

[2] = target: T2, wt hhIYD (iodotyrosine deiodinase from Haliscomenobacter hydrossis) (Haliscomenobacter hydrossis, UniProt F4KU78, T173A); assay: steady-state reductive deiodination; assay type: biochemical; settings: read-out: I2-Tyr / KM; dithionite as reductant
T2 sequence (F4KU78 1-222 T173A): T1 sequence (F4KU78 1-222) with T173A

[3] = target: T2, wt hhIYD (iodotyrosine deiodinase from Haliscomenobacter hydrossis); assay: quenching of active-site FMNox fluorescence; assay type: binding
[4] = target: T1, wt hhIYD (iodotyrosine deiodinase from Haliscomenobacter hydrossis); assay: UV-vis spectrum of enzyme-bound FMN, dithionite reduction; assay type: binding; settings: pH 6 MES, 500 mM NaCl, 10% glycerol; anaerobic

Compound	Kd [1] [µM]	Km [2] [µM]	Kd [3] [µM]	UV-vis spectrum of enzyme-bound FMN, dithionite reduction [4]
N[C@@H](Cc1cc(I)c(O)c(I)c1)C(=O)O [I2-Tyr]	2.9 ± 0.1	35 ± 8	2.6 ± 0.2	–
Cc1cc2nc3c(=O)[nH]c(=O)nc-3n(C[C@H](O)[C@H](O)[C@H](O)COP(=O)(O)O)c2cc1C [FMN]	–	–	–	Stoichiometric addition of dithionite to wt hhIYD under anaerobic conditions reduced its FMNox to FMNhq
